Here are results for 13 sequences from patent US7754228B2, “Cytotoxic T-cell epitopes from Chlamydia” (Novartis Vaccines and Diagnostics, Srl, priority 2002, dated 2010).

The subject of the test is HLA A2. It counts as binding, human. To be noted: for Mean 1 / Mean 2 / binding to HLA A2 (in words): RMA-S/A2 cells; for Mean 1: peptide and only anti-mouse secondary antibody; for Mean 1 / Mean 2: FACS mean; for Mean 2: peptide, anti-A2 Mab BB7.2 and secondary antibody; for binding to HLA A2 (in words): in vitro binding assay.

Entries after “also recorded” stand apart in the source; their conditions may differ. Where two headings read alike, the source gives them in different places.

Regarding “VQLAYVFDV (listed as Chlamydia pneumoniae) [CH16]”, the “High - B” value is given as 0, the “Δ Mean” value amounted to 232 and the “binding to HLA A2 (in words)” value is “do not seem to bind”. Also, for the setting “100 μM peptide”, the “Mean 1” value was 201 and the “Mean 2” value amounted to 433.

As for VIQAFGDFV [CH47], the “High - B” value stood at 17 and the “Δ Mean” value came to 177. For the same sequence, where the note is “10 μM peptide”, the “Mean 1” value was 125 and the “Mean 2” value is on record as 302.

For FLTLAWWFI [CH8], the “High - B” value is on record as 82, the “Δ Mean” value is reported as 328 and the “binding to HLA A2 (in words)” value is given as “bind to HLA A2”. Further, where the note is “1 μM peptide”, the “Mean 1” value is reported as 204 and the “Mean 2” value is 532.

Turning to YLALDPDSV [CH48], the “Δ Mean” value was found to be 303 and the “binding to HLA A2 (in words)” value was “bind to HLA A2; also recorded: positive in the binding assay”. Moreover, where the note is “100 μM peptide”, the “Mean 1” value came out at 148 and the “Mean 2” value is on record as 451. Moreover, the “rank in the binding assay among five epitopes predicted in protein 4376601” value (CH44 to CH48) was “strongest epitope using the binding assay”.

Consider ILQEAEQMV [CH17], for which the “High - B” value was 140, the “Δ Mean” value amounted to 386 and the “binding to HLA A2 (in words)” value was “bind to HLA A2”. Further, where the note is “100 μM peptide”, the “Mean 1” value worked out at 185 and the “Mean 2” value came to 571.

For the sequence FVSKFWFSL [CH57], the “High - B” value is −17. Moreover, under “1 μM peptide”, the “Mean 1” value is 127 and the “Mean 2” value came to 270.

Turning to “VLNLFFSAL (listed as Chlamydia pneumoniae) [CH3]”, the “High - B” value is reported as 0 and the “Δ Mean” value is recorded as 224. For the same sequence, under “1 μM peptide”, the “Mean 1” value is listed as 195 and the “Mean 2” value is 419. The “ΔMean at high concentrations of peptide (in words)” value (high peptide concentrations, non-homogeneous fluorescent signal, most likely non-specific effects) is reported as “Very low ΔMean values”.

In the case of RLLEIIWGV [CH28], the “High - B” value amounted to 78, the “Δ Mean” value is given as 232 and the “binding to HLA A2 (in words)” value is “bind to HLA A2”. For the setting “10 μM peptide”, the “Mean 1” value stood at 158 and the “Mean 2” value was 390.

For ILLNEVPYV [CH2], the “High - B” value is listed as 133, the “Δ Mean” value is given as 372 and the “binding to HLA A2 (in words)” value is “bind to HLA A2”. Where the note is “10 μM peptide”, the “Mean 1” value turned out to be 264 and the “Mean 2” value worked out at 636.

For YVVGFIIFL [CH44], the “High - B” value came out at 31 and the “Δ Mean” value is 191. In addition, where the note is “10 μM peptide”, the “Mean 1” value came to 150 and the “Mean 2” value came out at 341.

As to YLMQKLQNV [CH29], the “High - B” value is given as 111, the “Δ Mean” value is listed as 265 and the “binding to HLA A2 (in words)” value is “bind to HLA A2”. Moreover, where the note is “100 μM peptide”, the “Mean 1” value is 153 and the “Mean 2” value came out at 418.

FLFQLGMQI [CH62]: the “High - B” value was 19 and the “Δ Mean” value is reported as 179. Under “100 μM peptide”, the “Mean 1” value was found to be 126 and the “Mean 2” value is reported as 305.

For KLLAFPAFA [CH40], the “High - B” value is listed as 96, the “Δ Mean” value was determined as 341 and the “binding to HLA A2 (in words)” value is “bind to HLA A2”. In addition, for the setting “100 μM peptide”, the “Mean 1” value stood at 214 and the “Mean 2” value is given as 555.
